The values that follow are results of earlier work, collected in patent publication US20220331235A1, “COMPOSITIONS FOR ORAL MICROADHESIVE DOSAGE FORMS” (FP NUTRACEUTICALS, LLC, priority 2018, published 2022).

The conditions of series [1]: vitamin B6: from food or supplements.
The conditions of series [2]: rat brain.

For the compound `NCC(=O)[O-].NCC(=O)[O-].[Zn+2]` [zinc glycinate], the “plasma zinc rankings based on area under the curve and rank results per person” value (from here on “plasma zinc rankings based on area … per person”) is reported as “glycinate>gluconate>picolinate=oxide”. Besides, the “bioavailability among four forms of zinc (oxide, picolinate, gluconate, glycinate)” value (acute uptake) is recorded as “highest bioavailability”. For the same compound, where the note is “versus second most-bioavailable form”, the “increase in bioavailability over zinc gluconate” value is given as 43.4%.
For the compound cobalamin [vitamin B12], the bioavailability in series [1] is 1-2%.
For `[O-2].[Zn+2]` [Zn-oxide], the “plasma zinc rankings based on area … per person” value is on record as “glycinate>gluconate>picolinate=oxide”.
Take `Cc1ncc(CO)c(CO)c1O` [vitamin B6, pyridoxine]: the bioavailability in series [1] is 75-100%.
`O=C([O-])c1cc(=O)[nH]c(=O)[nH]1.[Li+]` [lithium orotate]: in series [2], the “level in the brain compared to the carbonate form” value is “three-fold higher”.
As to zinc gluconate, the “plasma zinc rankings based on area … per person” value was “glycinate>gluconate>picolinate=oxide”.
In the case of `O=C([O-])c1ccccn1.O=C([O-])c1ccccn1.[Zn+2]` [Zn-picolinate], the “plasma zinc rankings based on area … per person” value is given as “glycinate>gluconate>picolinate=oxide”.
